# Laboratory results from patent US20230285450A1 (priority 2020, published 2023).
# Where a name gives a salt, the structure may show the parent alone.
# Experiments:
# [1] = test system: SKINETHIC™ human skin model; experiment: Skin irritation test; type: cell-based; conditions: relative to negative control group (PBS)
# Protocol: In the skin irritation test, the absorbance was measured for a […]™ human skin model, and a cell viability value (%) was calculated using [Equation 4] to [Equation 6].
# Cell viability (%) of negative control group=[absorbance of negative control group/absorbance of negative control group]×100 [Equation 4]
# Cell viability (%) of positive control group=[absorbance of positive control group/absorbance of negative control group]×100 [Equation 5]
# [2] = test system: BALB/3T3 clone A31 cells
# [3] = test system: cells; experiment: Annexin V/PI toxicity evaluation; type: cell-based; conditions: spots in upper right end indicate dead cells
# [4] = test system: S. typhimurium; experiment: Sterilization test of nitrogen oxide solutions without plasma; type: cell-based; conditions: ionized nitrogen oxide solutions without plasma
# Protocol: (§1) In order to confirm a sterilization effect of nitrogen oxides without plasma, ionized NO, NO2 and NO3 solutions were prepared and then sterilization experiments of S. typhimurium, S. aureus and E. coli were tested.
# [5] = test system: S. aureus; experiment: as above; type: cell-based; conditions: ionized nitrogen oxide solutions without plasma
# Protocol: as §1
# [6] = test system: E. coli; experiment: as above; type: cell-based; conditions: ionized nitrogen oxide solutions without plasma
# Protocol: as §1
# [7] = test system: bovine cornea (eye mucosa irritation)
# Excerpt: The BCOP assay is a test to evaluate an irritation index for the eye mucosa using opacity and permeability. […] An in vitro irritancy score (IVIS) may be calculated by measuring the opacity and permeability, and the IVIS value may be calculated by [Equation 3].
# IVIS=Mean opacity unit[…] [Equation 3]
smiles,measurement,setting,value
CCCCCCCCCCCCOS(=O)(=O)[O-].[Na+] [sodium dodecyl sulfate],cell viability,[1],about 1.1%
CN(C)CCCN1c2ccccc2Sc2ccc(Cl)cc21 [chlorpromazine hydrochloride],phototoxicity conclusion,[2],phototoxicity was shown
same,mean photo effect (MPE),[2]; mouse,0.418
same,photo irritation factor (PIF),[2]; mouse,18.882
"OO [H2O2, hydrogen peroxide]",Annexin V/PI toxicity,[3],many spots were present in the upper right end
O=NO [NO2],sterilization effect,[4],no sterilization effect was observed
same,sterilization effect,[5],no sterilization effect was observed
same,sterilization effect,[6],no sterilization effect was observed
CCO [ethyl alcohol],corneal opacity (appearance),[7],completely opaque
same,IVIS (in vitro irritancy score),[7]; bovine,39.4 ± 3.6
same,Opacity unit,[7]; bovine,19.9 ± 0.6
same,Transmittance (Absorbance (OD490)),[7]; bovine,1.300 ± 0.203
O=[N+]([O-])O [NO3],sterilization effect,[4],no sterilization effect was observed
same,sterilization effect,[5],no sterilization effect was observed
same,sterilization effect,[6],no sterilization effect was observed
